According to patent publication US11446269B2, “Methods of reducing or preventing oxidation of small dense LDL or membrane polyunsaturated fatty acids” (Amarin Pharmaceuticals Ireland Limited, priority 2014, dated 2022):

What was measured:
Type in all cases: biochemical
[1] = LOOH formation in glucose-treated model membranes, EPA versus EA and ETE (Example 5); conditions: 72 or 96 hr autoxidation
Description: An experiment was conducted to compare the ability of EPA to prevent lipid hydroperoxide formation in model membranes treated with glucose to two other 20-carbon fatty acids: eicosanoic acid (“EA,” also referred to as arachidic acid, C20:0) and eicosatrienoic acid (“ETE,” C20:3, n-3). All MLV samples were subjected to time-dependent autoxidation by incubating at 37° C. in an uncovered, shaking water bath. This method allows lipid peroxidation to occur gradually without requiring the use of exogenous initiators. Small aliquots (5-100 μL) of each sample were removed, immediately following MLV preparation (0 hr) and after exposing samples to oxidative conditions for 72 or 96 hr, and combined with 1.0 mL of activated CHOD-iodide color reagent. Aliquot volume was reduced with each successive time point to ensure that spectrophotometric readings were within the optimal adsorption range. Test samples were covered and incubated in darkness at room temperature for at least 4 hr. Sample absorbances were then measured against a CHOD blank at 365 nm using a Beckman DU-640 spectrophotometer. The CHOD colorimetric assay is based on the oxidation of iodide (I^−) by lipid hydroperoxide (LOOH) to form triiodide (I3^−), the quantity of which is directly proportional to the amount of LOOH present in the lipid sample. The molar absorptivity (ε) of I3^− is 2.46×10^4 M^−1 cm^−1 at 365 nm.

human sdLDL = assay: Copper-induced sdLDL oxidation, TBARS after 2 hr (Example 6); conditions: 10 μM CuSO4, vs vehicle
Description: Venous blood was collected from healthy volunteers into vacutainer tubes containing sodium EDTA. Plasma was separated by centrifugation at 3000 g for 25 min at 4° C. and adjusted to a density of 1.020 g/mL with KBr. Triglyceride-rich lipoproteins (TGRL) and LDL fractions were then isolated by sequential centrifugation at 70,000 rpm at 4° C. in a Beckman LE-80 ultracentrifuge using a Beckman 50.4Ti rotor (Beckman Coulter, Inc., Fullerton, Calif.). The TGRL fraction (with a relative density of <1.020) was aspirated from the top of the centrifugate and discarded, leaving an LDL-enriched infranate (with a relative density of 1.020 to 1.063). The plasma LDL fraction was further fractionated into LDL1, LDL2, LDL3, and LDL4 (sdLDL) subfractions with relative densities of 1.020 to 1.035, 1.035 to 1.050, 1.050 to 1.063, and 1.063 to 1.075, respectively. The sdLDL subfraction was retained for additional experimentation. Plasma and lipoprotein fractions were maintained at 4° C. and protected from excessive exposure to light. Prior to oxidation experiments, EDTA was removed from the lipoprotein fraction using PD-10 desalting columns (GE Healthcare, Piscataway N.J.). After equilibration of the column with phosphate buffered saline (PBS), 2.5 mL of the lipoprotein fraction was loaded on the column and the flow-through discarded. The lipoprotein was then eluted with 3 mL of PBS. The LDL fractions were further diluted with PBS to obtain a 100 μg/mL apoB100 concentration.
LDL and sdLDL subfractions (0.6 mL each) were incubated with either 10 μL vehicle (ethanol) or 10 μL drug stock solution for 30 min to 1 hr at 37° C. Oxidation was initiated by the addition of 10 μM CuSO4. After 2 hr, 100 μL aliquots were removed from each subfraction and combined with 1.0 mL thiobarbituric acid (0.5%), 10 μL trichloroacetic acid (5%), 10 μL BHT (5 mg/mL in methanol), and 10 μL EDTA (5 mM). […]. Sample TBARS concentrations were determined spectrophotometrically by measuring sample absorbances against a standard curve derived from the hydrolysis of 1,1,3,3-tetramethoxypropane.

[2] = Glucose-induced membrane lipid peroxidation (LOOH, CHOD-iodide assay) in DLPC/cholesterol multilamellar vesicles (Example 4)
Description: Vitamin E (α-tocopherol) was also purchased from Sigma-Aldrich and prepared in ethanol at 1.0 mM (ε=3.06×10^4 M^−1 cm^−1 at 294 nm) just prior to experimental use. […] All test compounds were further diluted in ethanol or aqueous buffer as needed. Glucose was prepared in saline buffer (0.5 mM HEPES, 154 mM NaCl, pH 7.3) at 11.0 mM (200 mg/dL). CHOD-iodide color reagent (stock) was prepared, with slight modification, as described by from El-Saadani et al. (J. […] Samples were shell-dried under nitrogen gas and placed under vacuum for 1 h to remove residual solvent. […] Lipid suspensions were then vortexed for 3 min at ambient temperature to form MLVs. All MLV samples were subjected to time-dependent autoxidation by incubating at 37° C. in an uncovered, shaking water bath. This method allows lipid peroxidation to occur gradually without requiring the use of exogenous initiators. Small aliquots (5-100 μL) of each sample were removed, immediately following MLV preparation (0 hour) and after exposing samples to oxidative conditions for 72 or 96 hour, and combined with 1.0 mL of activated CHOD-iodide color reagent. Aliquot volume was reduced with each successive time point to ensure that spectrophotometric readings were within the optimal adsorption range. Test samples were covered and incubated in darkness at room temperature for at least 4 hr. Sample absorbances were then measured against a CHOD blank at 365 nm using a Beckman DU-640 spectrophotometer. The CHOD colorimetric assay is based on the oxidation of iodide (I^−) by lipid hydroperoxide (LOOH) to form triiodide (I3^−), the quantity of which is directly proportional to the amount of LOOH present in the lipid sample. The molar absorptivity (c) of I3^− is 2.46×10^4 M^−1 cm^−1 at 365 nm. […] The concentration of glucose selected was consistent with previous experimental studies of hyperglycemia under controlled laboratory conditions or observed in well-defined animal models of Type II diabetes following a glucose challenge. […] Values in FIG. 1 are mean±S.D. (N=6). EPA inhibited the peroxidative effects of glucose by 88% and 86% at 72 and 96 hours, respectively, which was highly significant (p<0.001) as compared to glucose treatment alone. […] Overall ANOVA—0 hour data: p=0.6655, F=0.4185; 72 hour data: p<0.0001, F=428.72; 96 hour data: p<0.0001, F=322.01.

SMILES: CC/C=C\C/C=C\C/C=C\C/C=C\C/C=C\CCCC(=O)O [EPA, cis-5,8,11,14,17-eicosapentaenoic acid]
- LOOH formation compared to vehicle, glucose, glucose + EA, glucose + ETE [1]: significantly less LOOH formation
- reduction of TBARS levels (human sdLDL; 1.0 μM): 13%
- reduction of TBARS levels (human sdLDL; 10.0 μM): 57%
- antioxidant effect on glucose-induced LOOH formation ([2]; 1.0 μM, glucose 200 mg/dL, 96 hours): potent antioxidant effects
- effect on LOOH formation / lipid peroxidation ([2]; 72- and 96-hour time points, 1:30 drug-to-phospholipid mole ratio, glucose 200 mg/dL): significantly inhibited LOOH formation
- effect on membrane LOOH formation ([2]; tested at 1.0 and 5.0 μM, glucose-treated): inhibit membrane LOOH formation in a dose-dependent manner
